{"source": "patent US20100015220A1", "about": "“NIACIN AND NSAID COMBINATION THERAPY” (priority 2008, published 2010)", "key": {"[1]": {"system": "flushing induced by nicotinic acid", "conditions": "guinea pigs; aspirin 50, 100 or 200 mg/kg; cited from earlier work"}, "[2]": {"assay": "Example 2 safety: monitoring of adverse events", "format": "in vivo, healthy volunteers", "method": "Safety was assessed be assessing flushing episodes and by monitoring of other adverse events.\nAn adverse event (AE) is any unfavorable and unintended sign including an abnormal laboratory finding, symptom, or disease temporally associated with the use of a medical product, whether or not considered related to the study drug. The severity rating was scaled based on the following categories: • mild—awareness of a symptom, but easily tolerated; • moderate—discomfort enough to cause interference with usual activity; • severe—incapacitating with inability to work or perform usual activity.\nA total of 54 subjects were enrolled in the study. Forty-six subjects completed all three dosing periods and have contributed data to the evaluation of flushing parameters. A total of 51 subjects were exposed to Treatment A (240 mg ASA), 50 to B (60 mg ASA), and 50 to C (Placebo); these subjects comprise the population for evaluation of safety parameters."}, "[3]": {"system": "flushing following niacin dosing", "assay": "Example 1 clinical study: anti-flushing effect of aspirin regimen on immediate release niacin", "format": "in vivo, healthy volunteers", "conditions": "243 mg aspirin per day for four days plus 20 mg/hr from 6 h before to 5 h after immediate release niacin; vs placebo", "source_text": "Provided is the clinical study to establish an anti-flushing effect of aspirin regimen on immediate release niacin. The primary endpoints for this study were treatment group comparisons of: • incidence, duration and severity of flushing following niacin dosing; • routine monitoring adverse events. Subjects have screening procedures performed up to 4 weeks prior to the first dosing visit. All qualified subjects received two single doses of niacin one week apart. Subjects were randomized to receive either an aspirin regimen or a placebo regimen prior to their niacin dose on day 1 and the opposite regimen prior to their niacin dose on day 8. At randomization, subjects received blinded study medication to be taken in the morning and evening of days −4, −3, −2 and −1. Subjects checked into the clinic on day −1 and remained housed for approximately 24 hours after niacin dosing on day 1. Prior to leaving the clinic, they received blinded study medication to be taken on the morning and evening of days 4, 5, 6, and 7. Subjects returned to the clinic on day 7 and remained housed for approximately 24 hours after niacin dosing on day 8. […] Episodes of flushing (including burning, itching, crawling sensation, pain and/or reddening of the skin, fever-like sensation) were recorded with start and end time and maximum severity captured. […]"}, "[4]": {"system": "flushing induced by nicotinic acid", "conditions": "humans; total 975 mg aspirin (650 mg at 1 hr and 325 mg at 0.5 hr prior to high dose nicotinic acid); cited from earlier work"}, "[5]": {"system": "flushing associated with single-dose administration of extended-release niacin (Niaspan)", "assay": "Example 2 three-way cross-over study: anti-flushing effects of two aspirin regimens versus placebo on extended release niacin", "format": "in vivo, healthy volunteers", "conditions": "for subjects who experienced a flushing response: 2 g extended-release niacin; for subjects who experienced a flushing response / total number of flushing episodes: 46 subjects; for maximum severity of flushing, mean / maximum severity of flushing, median: 100 mm VAS; for total cumulative duration of flushing, mean / total cumulative duration of flushing, median: start of first episode to end of last", "source_text": "To assess the ability of two aspirin regimens to decrease flushing associated with single-dose administration of extended-release niacin (Niaspan®). […] Study subjects remained housed overnight at the clinical research center following niacin dosing to carefully monitor for flushing reactions and other adverse events. Each subject received all three dosing regimens in a randomized, three-way cross-over fashion. Subjects have screening procedures performed up to 4 weeks prior to Period 1 Day (the first dosing visit), including assessment of flushing response to a 500 mg immediate release niacin (Niacor®) challenge. All qualified subjects received three single doses of extended-release niacin at least one week apart during three treatment periods. Subjects were randomized to receive one of the two aspirin regimens or placebo prior to their niacin dose on Day 1 of each treatment period. At randomization, subjects received blinded study medication to be taken in the evening of days -3 and -2. For each treatment period, subjects checked into the clinic on Day -1 and remained housed for at least 18 hours after niacin dosing on Day 1. Prior to leaving the clinic during treatment periods 1 and 2, subjects received blinded study medication to be taken in the morning and evening of Days -3 and -2 of the next treatment period. End of study procedures was performed on Day 2 of treatment period 3 240 mg […]. for three days prior to niacin dosing plus 30 mg ASA per hour for eight hours, starting 4 hours prior to niacin dosing. 10 mg ASA per hour for 6 hours prior to niacin dosing. This regimen tested whether a lower dose of aspirin without an aspirin lead-in, and given entirely prior to niacin dosing, was sufficient to diminish flushing. No aspirin. This regimen acted as the negative control. Niaspan®, as well as blinded aspirin or placebo, for oral administration during the inpatient portion of each treatment period (Day -1 and Day 1) were dispensed by study pharmacist and administered to the subject by study personnel. Aspirin or placebo were administered in the evening on Day -1 and hourly on Day 1 for 6 hours before, concurrently with, and hourly for 3 hours after the Niaspan® dose. Episodes of flushing (including burning, itching, crawling sensation, pain and/or reddening of the skin, fever-like sensation) were recorded with start and end time maximum severity, and individual symptoms captured. A 100 mm visual analog scale (0=no flushing symptoms; 100=intolerable symptoms) was used to capture severity as reported by the subject. For each subject during each treatment period, the number of episodes of flushing, maximum severity of all episodes of flushing, and total duration of flushing, from start of the first episode to the end of the last episode, was calculated and summarized by treatment regimen. […] A total of 54 subjects were enrolled in the study. Forty-six subjects completed all three dosing periods and have contributed data to the evaluation of flushing parameters. A total of 51 subjects were exposed to Treatment A (240 mg ASA), 50 to B (60 mg ASA), and 50 to C (Placebo); these subjects comprise the population for evaluation of safety parameters."}, "[6]": {"assay": "ASA and salicylic acid plasma pharmacokinetic profiles", "format": "in vivo", "conditions": "for aspirin plasma AUC / salicylic acid plasma AUC: in vivo; for Cmax: plasma, oral"}, "[7]": {"conditions": "in vivo; cited from earlier work"}}, "note": "Read-outs that look alike come from different tables or passages of the source."}
{"smiles": "CC(=O)Oc1ccccc1C(=O)O", "note": "[ASA, acetyl salicylic acid]", "values": [{"measurement": "flushing induced by nicotinic acid", "setting": "[1]", "value": "reduce the flushing induced by nicotinic acid"}, {"measurement": "adverse events involving gastrointestinal disorders", "setting": "[2]; 60 mg ASA", "value": 3, "unit": "subjects"}, {"measurement": "headache", "setting": "[2]; 60 mg ASA", "value": 5, "unit": "subjects"}, {"measurement": "Number of AEs", "setting": "[2]; 60 mg ASA (n = 50)", "value": 14}, {"measurement": "Subjects with AEs Leading to Withdrawal", "setting": "[2]; 60 mg ASA (n = 50)", "value": "0 (0.0%) subjects (%)"}, {"measurement": "Subjects with Serious AEs", "setting": "[2]; 60 mg ASA (n = 50)", "value": "0 (0.0%) subjects (%)"}, {"measurement": "Subjects with Severe AEs", "setting": "[2]; 60 mg ASA (n = 50)", "value": "0 (0.0%) subjects (%)"}, {"measurement": "Subjects with any AE", "setting": "[2]; 60 mg ASA (n = 50)", "value": "10 (20.0%) subjects (%)"}, {"measurement": "Subjects with any CTM-related AE", "setting": "[2]; 60 mg ASA (n = 50)", "value": "7 (14.0%) subjects (%)"}, {"measurement": "adverse events involving gastrointestinal disorders", "setting": "[2]; 240 mg ASA", "value": 4, "unit": "subjects"}, {"measurement": "headache", "setting": "[2]; 240 mg ASA", "value": 4, "unit": "subjects"}, {"measurement": "Number of AEs", "setting": "[2]; 240 mg ASA (n = 51)", "value": 14}, {"measurement": "Subjects with AEs Leading to Withdrawal", "setting": "[2]; 240 mg ASA (n = 51)", "value": "0 (0.0%) subjects (%)"}, {"measurement": "Subjects with Serious AEs", "setting": "[2]; 240 mg ASA (n = 51)", "value": "0 (0.0%) subjects (%)"}, {"measurement": "Subjects with Severe AEs", "setting": "[2]; 240 mg ASA (n = 51)", "value": "0 (0.0%) subjects (%)"}, {"measurement": "Subjects with any AE", "setting": "[2]; 240 mg ASA (n = 51)", "value": "12 (23.5%) subjects (%)"}, {"measurement": "Subjects with any CTM-related AE", "setting": "[2]; 240 mg ASA (n = 51)", "value": "7 (13.7%) subjects (%)"}, {"measurement": "reduction in mean flush intensity", "setting": "[3]", "value": 53, "unit": "%"}, {"measurement": "reduction in median flush intensity", "setting": "[3]", "value": 77, "unit": "%"}, {"measurement": "flushing induced by nicotinic acid", "setting": "[4]", "value": "reduce the flushing induced by nicotinic acid"}, {"measurement": "episodes of flushing per subject, mean", "setting": "[5]; 60 mg ASA", "value": 1.4}, {"measurement": "subjects who experienced a flushing response", "setting": "[5]; 60 mg ASA (Treatment B)", "value": 87, "unit": "%"}, {"measurement": "incidence of itching, crawling, reddening and fever-like sensation of the skin", "setting": "[5]; 60 mg ASA compared to placebo", "value": "occurred less frequently"}, {"measurement": "times more likely to have fewer episodes of flushing", "setting": "[5]; 60 mg ASA compared to placebo (p>0.10)", "value": 1.3, "unit": "times"}, {"measurement": "total number of flushing episodes", "setting": "[5]; 60 mg ASA", "value": 64, "unit": "episodes"}, {"measurement": "maximum severity of flushing, mean", "setting": "[5]; 60 mg ASA", "value": 36.1, "unit": "mm"}, {"measurement": "maximum severity of flushing, median", "setting": "[5]; 60 mg ASA", "value": 35.0, "unit": "mm"}, {"measurement": "total cumulative duration of flushing, mean", "setting": "[5]; 60 mg ASA", "value": 101.8, "unit": "min"}, {"measurement": "total cumulative duration of flushing, median", "setting": "[5]; 60 mg ASA", "value": 84.0, "unit": "min"}, {"measurement": "episodes of flushing per subject, mean", "setting": "[5]; 240 mg ASA", "value": 1.1}, {"measurement": "subjects who experienced a flushing response", "setting": "[5]; 240 mg ASA (Treatment A)", "value": 74, "unit": "%"}, {"measurement": "incidence of individual flushing symptoms", "setting": "[5]; 240 mg ASA compared to 60 mg ASA or placebo", "value": "lower incidence of each flushing symptom"}, {"measurement": "times more likely to have fewer episodes of flushing", "setting": "[5]; 240 mg ASA compared to 60 mg ASA, multinomial logistic regression (p=0.05)", "value": 1.7, "unit": "times"}, {"measurement": "times more likely to have fewer episodes of flushing", "setting": "[5]; 240 mg ASA compared to placebo, multinomial logistic regression (p=0.01)", "value": 2.1, "unit": "times"}, {"measurement": "total number of flushing episodes", "setting": "[5]; 240 mg ASA", "value": 52, "unit": "episodes"}, {"measurement": "maximum severity of flushing, mean", "setting": "[5]; 240 mg ASA", "value": 25.8, "unit": "mm"}, {"measurement": "maximum severity of flushing, median", "setting": "[5]; 240 mg ASA", "value": 20.0, "unit": "mm"}, {"measurement": "total cumulative duration of flushing, mean", "setting": "[5]; 240 mg ASA", "value": 67.1, "unit": "min"}, {"measurement": "total cumulative duration of flushing, median", "setting": "[5]; 240 mg ASA", "value": 44.5, "unit": "min"}, {"measurement": "aspirin plasma AUC", "setting": "[6]; 160 mg", "value": "~800", "unit": "ngml^−1h"}, {"measurement": "salicylic acid plasma AUC", "setting": "[6]; 160 mg", "value": "~11000", "unit": "ngml^−1h"}, {"measurement": "aspirin plasma AUC", "setting": "[6]; 240 mg", "value": "~1200", "unit": "ngml^−1h"}, {"measurement": "salicylic acid plasma AUC", "setting": "[6]; 240 mg", "value": "~16300", "unit": "ngml^−1h"}, {"measurement": "aspirin plasma AUC", "setting": "[6]; 324 mg", "value": "~1600", "unit": "ngml^−1h"}, {"measurement": "salicylic acid plasma AUC", "setting": "[6]; 324 mg", "value": "~22000", "unit": "ngml^−1h"}]}
{"smiles": "O=C(O)c1cccnc1", "note": "[Niacin, nicotinic acid]", "values": [{"measurement": "reduces Lp(a) levels", "setting": "[7]", "value": "about 40%"}]}
{"smiles": "O=C(O)c1ccccc1O", "note": "[salicylic acid]", "values": [{"measurement": "Cmax", "setting": "[6]; 160 mg, fast release rate", "value": "~2600", "unit": "ng/mL"}, {"measurement": "Cmax", "setting": "[6]; 160 mg, intermediate release rate", "value": "~1700", "unit": "ng/mL"}, {"measurement": "Cmax", "setting": "[6]; 160 mg, slow release rate", "value": "~1200", "unit": "ng/mL"}, {"measurement": "Cmax", "setting": "[6]; 240 mg, fast release rate", "value": "~3700", "unit": "ng/mL"}, {"measurement": "Cmax", "setting": "[6]; 240 mg, intermediate release rate", "value": "~2600", "unit": "ng/mL"}, {"measurement": "Cmax", "setting": "[6]; 240 mg, slow release rate", "value": "~1800", "unit": "ng/mL"}, {"measurement": "Cmax", "setting": "[6]; 324 mg, fast release rate", "value": "~5000", "unit": "ng/mL"}, {"measurement": "Cmax", "setting": "[6]; 324 mg, intermediate release rate", "value": "~3500", "unit": "ng/mL"}, {"measurement": "Cmax", "setting": "[6]; 324 mg, slow release rate", "value": "~2400", "unit": "ng/mL"}]}
